Reference: PubChem BioAssay AID504564 (Southern Research Specialized Biocontainment Screening …, 2011)
The source made the active and inactive calls. No rule for the calls is given here. Where a SMILES comes first, the peptide text is derived from it.

How the values were obtained:
[1] = tested on: M. tuberculosis H37Rv growth inhibition, no glycerol; assay: Confirmatory growth inhibition assay, M. tuberculosis H37Rv, no glycerol, purified compounds (AID 504564); settings: for IC90: 90% growth inhibition concentration
[2] = as above; settings: M. tuberculosis H37Rv growth inhibition, no glycerol; at 25 µM (top of the series)

## Cc1ccc(C(=O)N/N=C(/CC(=O)c2cccs2)C(F)(F)F)cc1
[1]
  IC50: 560 nM
  IC90: 890 nM

## CCOC(=O)COn1c2c(c3c4no[n+]([O-])c4ccc31)CCCC2
[1]
  IC50: 1580 nM
  IC90: 3040 nM

## c1ccc(/N=C2\N=C(Nc3ccccn3)c3ccccc32)nc1
[1]
  IC50: 20 nM
  IC90: 30 nM

## COC(=O)c1cc(=O)n(-c2ccc(F)cc2)c(=Nc2ccc(F)cc2)s1
[1]
  IC50: 300 nM
  IC90: 1100 nM

## COc1cc(NC(=O)C/C(C)=N/NC(=O)c2ccccn2)c(OC)cc1Cl
[1]
  IC50: 2060 nM
  IC90: 6770 nM

## COC(=O)C(Nc1nc(SCC(=O)NC2CCCCC2)nc2ccccc12)c1ccccc1 (stereo not given)
[2]
  growth inhibition: 3.49% (inactive)

## CCOC1OC(=O)C(Cl)=C1Nc1ccccc1C (stereo not given)
[1]
  IC50: 2660 nM
  IC90: 4410 nM

## S=c1nc[nH]c2nc[nH]c12
[1]
  IC50: 1030 nM
  IC90: 1520 nM

## O=C1C(Br)=Cc2cccc3cccc1c23
[1]
  IC50: 60 nM
  IC90: 170 nM

## Cc1cccc(/C=C/C(=O)c2ccc([N+](=O)[O-])o2)c1
[1]
  IC50: 20 nM
  IC90: 20 nM

## O=C(/C=C/c1ccccc1)N1CCN(CCN2C(=O)c3cccc4cccc(c34)C2=O)CC1
[1]
  IC50: 1520 nM
  IC90: 4020 nM

## O=C(CSc1nc2ccccc2c(=O)[nH]1)NC1CCCCC1
[1]
  IC50: < 10 nM
  IC90: < 10 nM

## Nc1c(C(=O)NC2CCCCC2)nsc1C(=O)OCC(=O)NC1CCCCC1
[1]
  IC50: 450 nM
  IC90: 1230 nM

## CCC(C)Nc1ccc(NC(C)CC)cc1 (stereo not given)
[1]
  IC50: 590 nM
  IC90: 990 nM

## CCOC(=O)COc1ccc(/C=C2\NC(=S)N(CC)C2=O)cc1
[1]
  IC50: 1680 nM
  IC90: 4460 nM

## CNc1nc(SCc2ccccc2Cl)nc2c1CCCC2
[1]
  IC50: 430 nM
  IC90: 1060 nM

## Cc1ccc2c(c1)c(C1=c3ccccc3=NC1=O)c(O)n2C
[1]
  IC50: 490 nM
  IC90: 1500 nM

## Oc1ccccc1/C=N/Nc1ccnc(SCc2ccccc2)n1
[2]
  growth inhibition: 0.48% (inactive)

## COC(=O)C1CC(=O)N(c2ccc(OCc3ccccc3Cl)cc2)C1 (stereo not given)
[1]
  IC50: 340 nM
  IC90: 2630 nM

## CC[N+](C)(CC)CCCCOc1ccc2c(c1)C(=O)c1cc(OCCCC[N+](C)(CC)CC)ccc1-2
[1]
  IC50: 700 nM
  IC90: 1200 nM

## Cc1nc(SCC(=O)NC2CCCCC2)[nH]c(=O)c1C
[1]
  IC50: 250 nM
  IC90: 740 nM

## Cc1nn2c(NCc3ccccn3)cc(C(C)C)nc2c1-c1ccccc1
[1]
  IC50: 640 nM
  IC90: 1200 nM

## O=C(/C=C\c1cccs1)N1CCN(Cc2ccc3c(c2)OCO3)CC1
[1]
  IC50: 140 nM
  IC90: 330 nM

## CCc1ccc(/C=C2/C(=O)N(C)C(=S)N2CC(=O)OC)s1
[1]
  IC50: 460 nM
  IC90: 1910 nM

## CCOC(=O)CNC(=O)[C@H](Cc1ccccc1)NC(=O)OCc1ccccc1 (HELM PEPTIDE1{[O=C(OCc1ccccc1)[*:2]].F.G.[CCO[*:1]]}$$$$V2.0)
[1]
  IC50: 1080 nM
  IC90: 2500 nM

## Cc1cc(Br)ccc1NC(=O)c1cnc(N2CCN(c3ccccn3)CC2)c2ccccc12
[1]
  IC50: 850 nM
  IC90: 2540 nM

## O=C(CSc1nc2ccccc2c(=O)[nH]1)NCc1ccc(Cl)cc1
[1]
  IC50: 300 nM
  IC90: 660 nM

## O=C(NCC(c1cccs1)N1CCOCC1)c1cc([N+](=O)[O-])cc([N+](=O)[O-])c1 (stereo not given)
[1]
  IC50: 150 nM
  IC90: 310 nM

## CCOC(=O)C(C)Sc1ncnc2c1nnn2-c1ccc(F)cc1 (stereo not given)
[1]
  IC50: 450 nM
  IC90: 4760 nM

## Cc1cccc(-c2oc3ccc(-c4ccc5c(c4)OCO5)cc3c2C#Cc2cncn2C)c1
[1]
  IC50: 2220 nM
  IC90: 2930 nM

## COC(=O)CCc1nc2c(C#N)c(-c3ccc(Cl)cc3)ccn2n1
[1]
  IC50: 840 nM
  IC90: 3540 nM

## Cc1ccc(NC(=O)C2C3/C=C\CCCCC32)cc1C (stereo not given)
[1]
  IC50: 1870 nM
  IC90: > 25000 nM

## CC1CCN(C(=O)C2CCN(c3nnc(-n4cccc4)s3)CC2)CC1
[1]
  IC50: 1150 nM
  IC90: 2830 nM

## Cc1ccc2ccc3ccc(C)nc3c2n1
[1]
  IC50: 160 nM
  IC90: 450 nM

## COC(=O)C(C)Oc1ccc(-c2nccc(-c3ccccn3)n2)cc1 (stereo not given)
[1]
  IC50: 1640 nM
  IC90: 4320 nM

## CC(=NCc1ccc2c(c1)OCO2)C1=C(O)c2ccccc2C1=O
[1]
  IC50: 70 nM
  IC90: 600 nM

## CCOC(=O)c1ccc(NC(=O)Cn2ncc(Cl)c(Cl)c2=O)cc1
[1]
  IC50: 90 nM
  IC90: 280 nM

## COC(=O)c1ccc(CNc2c(N3CCCC3)c(=O)c2=O)cc1
[2]
  growth inhibition: -5.07% (inactive)

## CC(C)NC(=O)c1sc(=S)n2c1[nH]c(=O)c1ccc(C(=O)NCCc3ccc(Cl)cc3)cc12
[1]
  IC50: 210 nM
  IC90: 430 nM
